Values joined by “and” are separate entries in the source; they are usually repeats but may differ in a detail not shown here. Equal values may be shown once.
What was measured:
Format in all cases: in vivo
Schistosoma mansoni [1] = assay: Primary prophylactic test (mortality test) against Schistosoma mansoni in mice
Experimental: The primary screening method used to evaluate prophylactic activity against Schistosoma mansoni is a mortality test. Mice are exposed to a massive number of cercariae by tail immersion. In untreated control mice this exposure produces a reproducible mortality pattern with 99+% of the mice dying between 20 and 30 days (mean survival time 24 days). The test compound is administered in a single dose two days after cercarial exposure. A compound is considered active if mice survive to 49 days, at which time they are sacrificed and examined for worms.
The test is of the "prophylactic"-type in the sense that the drug action is on the immature migrating schistosomes and prevents the development of adult worms in the portal circulation.
Mice weighing 18 to 23 grams were exposed to 3500-4500 infective S. mansoni cercariae by tail immersion for 30 minutes, and subsequently housed in groups of five per cage (5 test mice and 5 control mice). Two days after infection, the test compound of the formula (I) was administered subcutaneously as a single 1,280 mg/kg dose suspended in peanut oil to one group of five mice.
Mouse mortality was recorded daily for 49 days after infection. On the 49th day, survivors were sacrificed and the total worm burden was determined by perfusion of the liver and portal circulation (perf-o-suction technique).
Control mice exposed to at least 3500 cercariae and not treated with the test compound (I) experience 99+% mortality, with nearly all deaths occurring between about day 20 and day 30. In treated mice, deaths occurring within one week after drug administration are assumed to be induced by the toxic action of the drug itself, since, control mice rarely die during this period. The survival of drug treated mice to 49 days is interpreted as evidence of drug action which kills or otherwise prevents the development of the migrating immature schistosomes. The- survival of only one mouse has, in our experience, been difficult to reproduce, and, in general, a compound is not considered active unless two or more mice survive to 49 days.

[2] = Acute oral toxicity study in mice
Experimental: The test chemical was administered as a single 4,000 mg/kg oral dose to five male and five female Swiss mice.

Schistosoma mansoni [3] = assay: Primary curative test against Schistosoma mansoni in hamster
Experimental: The primary curative test evaluates the therapeutic activity of the drug against S. mansoni in hamster. Interpretation of the test is based upon observation of a shift of worms from the portal and mesenteric veins to the liver under the influence of the test drug. Hamsters weighing 150 to 250 grams were exposed to 150-250 S. mansoni cercariae by the ring method. 30 to 35 days after infection, the test drug (compound (I)) was administered as a 200 mg/kg daily dose for four consecutive days. The drug was administered by oral gavage suspended in gum syrup. Hamsters were sacrificed three days after the last drug treatment. The liver was removed, squashed between two slides, and the number of live and dead worms in the liver were recorded. From experience, the total worm burden in the portal circulation of S. mansoni infected hamsters ranges from 20 to 50 worms, i.e., […] of the total number of cercariae injected. Over 80% of these worms reside in the extra-hepatic portal and mesenteric veins. Thus, when the liver is removed in control animals about 10 worms could be counted in the liver.

S. japonicum = assay: Primary curative test against S. japonicum in hamsters; conditions: 1 g/kg single oral gavage
Description: The primary curative test evaluates the therapeutic activity of the drug against S. japonicum in hamsters. Interpretation of the test is based upon observation of a shift of worms from the portal and mesenteric veins to the liver under the influence of the test drug. In addition the mortality of the worms found in the liver, portal and mesenteric veins is also an important criteria of effectiveness in establishing the schistosomicidal effectiveness of the drug. Hamsters weighing 150 to 250 grams were exposed to 100 S. japonicum cercariae by the ring method. 35 to 45 days after infection, the test compound (I) was administered as a single […] by oral gavage, the product being suspended in gum syrup. Out of 10 infected animals, 5 were so treated, with 5 being used as control animals. Hamsters were sacrificed three days after treatment; the liver was removed as well as the portal and mesenteric veins, squashed between two slides and the number of live or dead worms in the liver, the portal and mesenteric veins was recorded.

[4] = individual surviving mice (Mouse 1-3) sacrificed day 49, 1,280 mg/kg s.c.
[5] = mean of three surviving mice, day 49, 1,280 mg/kg s.c.
[6] = individual hamsters 1-5, 200 mg/kg daily for four consecutive days, oral gavage, sacrificed three days after last treatment, 200 mg/kg
[7] = individual treated hamsters 1-5

Structure (SMILES): COc1ccc(NC(=O)C=Cc2ccc([N+](=O)[O-])o2)c(C)c1 [compound (I), N-(4-methoxy-2-methylphenyl)-3-(5-nitro-2-furanyl) propenamide]
- mice survived until day 49 (Schistosoma mansoni [1]; group of five mice, single 1,280 mg/kg subcutaneous dose in peanut oil two days after infection): Three
- day of death of the two test mice that died (Schistosoma mansoni [1]; group of five mice, single 1,280 mg/kg subcutaneous dose, control mice died at days 19, 22, 25, 28 and 32): 41 days
- worm burden, Female (Schistosoma mansoni [1]; [4]): 5 and 7 and 6
- worm burden, Total (Schistosoma mansoni [1]; [4]): 15 and 19 and 16
- worm burden, Male (Schistosoma mansoni [1]; individual surviving mice (Mouse 1-3) sacrificed day 49, 1,280 mg/kg s.c., perfusion of liver and portal circulation): 10 (2×) and 12
- worm burden, Female, mean (Schistosoma mansoni [1]; [5]): 6.0
- worm burden, Male, mean (Schistosoma mansoni [1]; [5]): 10.6
- worm burden, Total, mean (Schistosoma mansoni [1]; [5]): 16.6
- activity against the migrating stage of Schistosoma mansoni in mice (Schistosoma mansoni [1]; single subcutaneous administration of 1,280 mg/kg, active = two or more mice survive to 49 days): active
- LD50 at 336 h ([2]; mouse, in vivo, po, administered orally in mice): > 4000 mg/kg
- clinical observation, weights and macroscopic examination of organs ([2]; single 4,000 mg/kg oral dose, five male and five female Swiss mice, 14 days): no adverse pattern
- shift of worms from the portal and mesenteric veins to the liver (Schistosoma mansoni [3]; 200 mg/kg daily x 4 days oral, parasites in the liver were dead): marked shift of the worms from the portal and mesenteric veins to the liver
- effective dose (Schistosoma mansoni [3]; for four consecutive days, oral gavage, hamster): 200 mg/kg per day
- No. of worms found in the liver, Treated Animals, F (Schistosoma mansoni [3]; [6]): 17 and 6 and 18 and 60 and 54
- No. of worms found in the liver, Treated Animals, M (Schistosoma mansoni [3]; [6]): 17 and 10 (2×) and 50 and 46
- Mean No. of worms found in the liver, Treated Animals, F (Schistosoma mansoni [3]; mean of five treated hamsters, 200 mg/kg daily x 4 days oral, controls 12.0): 31.0
- Mean No. of worms found in the liver, Treated Animals, M (Schistosoma mansoni [3]; mean of five treated hamsters, 200 mg/kg daily x 4 days oral, controls 15.3): 26.6
- shift of worms from the portal and mesenteric veins to the liver (S. japonicum): marked shift of the worms from the portal and mesenteric veins to the liver
- worms killed on the average in the liver, the portal and mesenteric veins (S. japonicum; average of five treated hamsters): about 86%
- No. of worms found, Liver, Female (S. japonicum; [7]): 7 and 6 (3×) and 4
- No. of worms found, Mesenteric, Female (S. japonicum; [7]): 5 and 4 (3×) and 2
- No. of worms found, Mesenteric, Male (S. japonicum; [7]): 7 (2×) and 6 and 4 and 8
- No. of worms found, Portal, Female (S. japonicum; [7]): 0
- No. of worms found, Portal, Male (S. japonicum; [7]): 0
- No. of worms found, Liver, Male (S. japonicum; individual treated hamsters 1-5, sacrificed three days after treatment): 8 (2×) and 14 (2×) and 9
- % dead (S. japonicum; worms, individual treated hamsters 1-5, controls 0): 100% (3×) and 70% and 60%
